Assay results reported in patent US8258099B2, “Pin1-modulating compounds and methods of use thereof” (Max-Planck-Gesellschaft zur Foerderung der Wissenschaften …, priority 2004, dated 2012).
Square brackets hold non-standard residues; d marks the D form. Peptide text beside a SMILES is read from it. * marks the point of attachment. Biotin = O=C1N[C@H]2[C@H](CS[C@H]2CCCCC(=O)*)N1; d(pT) = C[C@H](OP(=O)(O)O)[C@@H](N)C(=O)O; 2Nal = N[C@@H](Cc1ccc2ccccc2c1)C(=O)O; Bta = N[C@@H](Cc1csc2ccccc12)C(=O)O; Pip = O=C(O)[C@@H]1CCCCN1

Tests used:
authentic hPin1 = target: T1, authentic hPin1 (Homo sapiens, UniProt Q13526); assay: Pull down assay, HeLa cell lysate; type: binding; details: streptavidin sepharose
T1 construct: endogenous in cells; host or cells: HeLa cell lysate
Procedure: (§1) FIGS. 5A-B depict pull down assays showing peptide 16 binds to authentic XlPin1 (A) and hPin1 from HeLa cells (B). FIG. 5A depicts the indicated concentrations of peptide 16 were incubated with X. laevis embryo extract in the absence of phosphatase inhibitors. Peptide 16/XlPin1-complex was then extracted from the respective mixture using streptavidin sepharose. Samples were analyzed regarding coextracted XlPin1 by SDS PAGE followed by western blot analysis. Untreated lysate (input) was loaded as a control. Authentic XlPin1 was detected using an anti hPin1 PPIase domain antiserum followed by incubation with a horseradish peroxidase-conjugated secondary antibody. Visualization was done using the SuperSignal® substrate. FIG. 5B indicates concentrations of peptide 16 were incubated with HeLa cell lysate in the absence of phosphatase inhibitors. The peptide 16/hPin1-complex was then precipitated from the respective mixture using streptavidin sepharose and isolated from the supernatant. Extracted proteins and the supernatants were then analyzed by SDS PAGE. […] After western blotting, hPin1 was detected using an anti hPin1 PPIase domain antiserum as primary antibody and a horseradish peroxidase-conjugated secondary antibody. […]
(§2) Peptide 16 (see Table III) was incubated with HeLa cell or X. laevis embryo lysate for 1 hour at 4° C. […] The samples were then heated to 95° C. and analyzed by SDS PAGE. […]

authentic XlPin1 = assay: Pull down assay, X. laevis embryo lysate; type: binding; details: no phosphatase inhibitors, streptavidin sepharose
Procedure: as §1, §2

X. laevis embryos = assay: Microinjection in X. laevis embryos, cell division; type: in vivo; details: microinjection at stage 2
Procedure: FIG. 8 depicts the blocking of cell division by the injection of peptide 17 in X. laevis embryos. 50-300 pmol of peptide 17 or 300 pmol of its nonphosphorylated derivative (control) dissolved in 10 nl PBS buffer were microinjected in the animal half of X. laevis embryos at stage 2 of development. Embryos with large and/or apoptotic appearing cells surrounded by normally developing cells were counted after further 5 hours (stage 8-9) of development. […] Each value is the average of four independent experiments.
FIGS. 9A-F depicts phenotypic analysis of X. laevis embryos after injection of peptide 17. 300 pmol of peptide 17 or its nonphosphorylated derivative dissolved in 10 nl PBS buffer were injected in the animal half of X. laevis embryos at stage 2 of development. 1.5 hour at stage 6 (A), 2.5 hours at stage 7 (B) and 4-5 hours at stage 8-9 (C, D) after injection enlarged cells became visible. Cells that are blocked in cell division are marked with a white arrow. Controls of uninjected embryos of stage 8-9 and embryos that were injected with 300 pmol of the nonphosphorylated derivative of peptide 17 are shown in panels E and F. The site where the nonphosphorylated derivative of peptide 17 was injected is marked with a white arrow (F).
FIGS. 10A-D depict the rescue of peptide 17 caused cell division block in X. laevis embryos by hPin1 (A, B) and different hPin1 variants (C, D). FIG. 10A depicts the time course of V5-tagged hPin1 expression was analyzed by preparation of X. laevis embryo lysate 1, 2 and 4 hours after injection of 1, 2 or 3 ng of V5-tagged hPin1 mRNA. In every case, the injected volume was 10 nl. Lysates were prepared in lysis buffer containing phosphatase and protease inhibitors. Samples were separated by SDS PAGE followed by western blotting. Endogenous XlPin1 and V5-tagged hPin1 were detected using an anti hPin1 PPIase domain antiserum as primary antibody followed by incubation with a horseradish peroxidase-conjugated secondary antibody. Visualization was done using the SuperSignal® substrate. […] In every case, the whole volume of injection was 10 nl. The indicated amount of the mRNA was injected in the animal half of 30 embryos at stage 2 of development. Embryos with large and/or apoptotic appearing cells surrounded by normally developed cells were counted after additional 5 hours of development (stage 8-9). […] Each percentage of vital embryos shown in the figure is the average of four independent experiments. FIG. 10C indicates the expression of V5-tagged hPin1 variants was evaluated by preparation of embryo lysate after 4 hours of injection of the respective mRNA (2 ng) in X. laevis embryos. Lysates were prepared in lysis buffer containing phosphatase and protease inhibitors. Samples were separated using SDS PAGE followed by western blot analysis. Endogenous XlPin1 and injected V5-tagged hPin1 variants were detected using an anti hPin1 PPIase domain antiserum as primary antibody and a horseradish peroxidase-conjugated secondary antibody. Visualization was done by a chemiluminescent reaction using the SuperSignal® substrate (Pierce). FIG. 10D depicts 250 pmol of peptide 17 was coinjected with 2 ng mRNA of the indicated V5-tagged hPin1 variant (whole volume 10 nl) in the animal half of 30 X. laevis embryos at stage 2 of development. Results were analyzed as described for FIG. 10B. Each percentage of vital embryos shown in the figure is the average of four independent experiments.
Microinjection was done into the animal half of X. laevis embryos at stage 2 of development. In every case, the injection volume was 10 nl. Immunofluorescence studies of frozen X. laevis embryo sections were performed as previously described (Julius et al., 2000). Ten-micrometer cryosections of stage 8 embryos were labelled using a monoclonal anti hPin1 antibody (mouse) followed by incubation with Alexa Fluor 546™-conjugated anti mouse antibody of goat serum (Molecular Probes). […]

[1] = Stability against cellular phosphatases and proteases in HeLa cell lysate; type: in vitro ADME; details: discussion statement (FIG. 4)
Procedure: FIG. 4 depicts the stability of peptide 17 against cellular phosphatases and proteases. Peptide 17 was incubated for 3 hours in HeLa cell lysate in the absence of phosphatase and protease inhibitors. The mixture was then analyzed by capillary electrophoresis (short dashed line). As controls, the untreated peptide 17 (solid line) and its nonphosphorylated derivative (dotted line) were used. The temperature of the capillary thermostating system was kept at 16° C. Separation buffer was 50 mM sodium phosphate, pH 7.0. Signals were detected at 220 nm.
Peptide 17 was incubated with HeLa cell lysate for 3 h and analyzed with capillary electrophoresis using UV detection at 220 nm on a P/ACE MDQ (Beckman Coulter, Palo Alto, Calif.) system. Fused-silica capillaries (Polymicro Technologies) of 40 cm length at an operation voltage of 20 kV were used. As references, untreated peptide 17 and its nonphosphorylated derivative were used. The samples were hydrodynamically injected with 3.45 kPa for 10 s. 50 mM sodium phosphate buffer (pH 7.0) was used as separation buffer. The system temperature was kept at 16° C.
The stability of peptides 15 and 17 in cytoplasmic extracts from HeLa cells was investigated using MALDI-TOF mass spectrometry and capillary electrophoresis, respectively. In the cytosolic incubation mixture, streptavidin sepharose beads served to isolate peptide 15 fragments after prolonged incubation. […] Therefore, phosphopeptides are useless for evaluating Pin1 functions in vivo unless dephosphorylation can be avoided.

endogenous XlPin1 = assay: Immunofluorescence of microinjected X. laevis embryos; type: in vivo; details: stage 8
Procedure: FIG. 11 depicts the colocalization of peptide 16 and endogenous XlPin1 in X. laevis embryos. 100 pmol and 250 pmol of peptide 16 dissolved in 10 nl PBS buffer were injected in X. laevis embryos at stage 2 of development. In a control experiment, 10 nl of the pure PBS buffer were injected. Embryos were fixed at stage 8, embedded and cryosectioned. Peptide 16 is stained in green using the Oregon Green™ 488-labeled NeutrAvidin biotin-binding protein. Endogenous XlPin1 is stained in red using a monoclonal anti hPin1 antibody (mAb hPin1) from mouse and an Alexa Fluor 546™-conjugated secondary antibody. Overlapping patterns are shown in yellow in the merged images. Nuclei are stained with DAPI.
Microinjection was done into the animal half of X. laevis embryos at stage 2 of development. In every case, the injection volume was 10 nl. Immunofluorescence studies of frozen X. laevis embryo sections were performed as previously described (Julius et al., 2000). Ten-micrometer cryosections of stage 8 embryos were labelled using a monoclonal anti hPin1 antibody (mouse) followed by incubation with Alexa Fluor 546™-conjugated anti mouse antibody of goat serum (Molecular Probes). […] Samples were analyzed using an Axioplan epifluorescence microscope with fluorescein and Cy3 selective filter sets. […]

T1 sequence (Q13526 whole entry): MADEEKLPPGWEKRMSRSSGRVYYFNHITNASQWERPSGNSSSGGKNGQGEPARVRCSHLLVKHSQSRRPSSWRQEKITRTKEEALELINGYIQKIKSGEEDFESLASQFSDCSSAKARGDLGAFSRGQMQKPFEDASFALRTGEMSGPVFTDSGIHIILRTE

SMILES: CC(=O)N[C@@H](CCCCNC(=O)CCCC[C@@H]1SC[C@@H]2NC(=O)N[C@@H]21)C(=O)N[C@@H](C)C(=O)N[C@@H](C)C(=O)N[C@@H](Cc1csc2ccccc12)C(=O)N[C@@H](C(=O)N1CCCC[C@H]1C(=O)N[C@@H](Cc1ccc2ccccc2c1)C(=O)N[C@@H](CCC(N)=O)C(N)=O)[C@H](C)OP(=O)(O)O [Peptide 16, Ac-Lys(N^ε-biotinoyl)-Ala-Ala-Bth-D-Thr(PO3H2)-Pip-Nal-Gln-NH2] (Ac-K(Biotin)AA[Bta][d(pT)][Pip][2Nal]Q-NH2)
- pull down of authentic hPin1 (authentic hPin1): pulled down
- coprecipitation of authentic XlPin1 (authentic XlPin1): coprecipitated with peptide 16 in a dose-dependent manner
- effect on development of the embryos (X. laevis embryos): cell cycle blockage and embryonic death
- stability in cytosol [1]: sufficiently stable
- colocalization with XlPin1 (endogenous XlPin1; 100 pmol injected): clear nuclear colocalization
- effect on embryonic tissue (endogenous XlPin1; 250 pmol injected): distortions of the embryonic tissue
